Measured values reported in patent US20240018129A1, “COMPOUNDS AS PU. 1 INHIBITORS” (PEKING UNIVERSITY, priority 2020, published 2024).

Assays:
[1] = system: bleomycin-induced skin fibrosis; test: bleomycin-induced skin fibrosis, preventive and therapeutic models; type: in vivo, mouse
Protocol: Methods: To evaluate the preventive and therapeutic effects of compound I-1 on skin fibrosis, bleomycin was used to establish two animal models of skin fibrosis with different drug intervention (6-8 weeks, C57BL/6, male). Skin fibrosis was induced by local injection of bleomycin (0.5 mg/mL, 0.1 ml/mouse) in a skin defined area (˜1 cm^2), where the hair was removed in advance, at the upper back every other day. Subcutaneous saline injections served as controls. (I) Preventive model of bleomycin-induced skin fibrosis: Compound I-1, positive control DB1976, or vehicle (saline) were injected i.p. simultaneously with bleomycin for 4 weeks (FIG. 3a). (II) Therapeutic model of bleomycin-induced skin fibrosis: Mice were pre-charged with bleomycin for 3 weeks to induce skin fibrosis, then treated with compound I-1, positive control DB1976, or vehicle (saline) for another 3 weeks, total time is 6 weeks after the first bleomycin treatment (FIG. 30. After the last day of treatment of both models, mice were fasted overnight and euthanized. Part of the skin was fixed with paraformaldehyde after fully flat on a foil, embedded with paraffin, and then sliced for H&E, Sirius red and Masson staining to check pathological features. The epidermal thickness of each sample was calculated quantitatively with image J. Another part of skin was collected and stored at −80° C. after liquid nitrogen quick-freezing, RNA isolation (Code.R6934, OMEGA, USA), first cDNA reverse (Code.AT341, TransGen, China), SYBR mix (Code.AQ601, TransGen, China) for Q-PCR (LightCycler® 96, Roche) to verify several fibrosis-related genes mRNA level, such as, Col1a1 and Col1a2.

[2] = system: T-ALL blast cells and TIM-3-high LICs; test: Pten-null T-ALL mouse model, compound I-1 and/or rapamycin treatment
Protocol: To generate a Pten-null T-ALL mouse model, Pten was 40% deleted in mouse fetal liver hematopoietic stem cells (HSCs), followed by PI3K-AKT pathway activation, hematopoietic disorder and T-ALL development. In the T-ALL crisis stage, T-ALL blasts and LICs would infiltrate mouse hematopoietic organs and non-hematopoietic organs.
After treatment, hematopoietic and non-hematopoietic organ morphology of the mice was analyzed using hematoxylin-eosin (H&E) staining.

[3] = preventive model, 5mpk i.p., 4 weeks

N=C(N)c1ccc2nc(-c3ccc(NC(=O)[C@@H]4CCCN4C(=O)[C@@H]4CCCN4C(=O)c4ccc(-c5nc6ccc(C(=N)N)cc6[nH]5)cc4)cc3)[nH]c2c1 [Compound I-1, (S)-1-((4-(6-carbamimidoyl-1H-benzo[d]imidazol-2-yl)benzoyl)-L-prolyl)-N-(4-(6-carbamimidoyl-1H-benzo[d]imidazol-2-yl)phenyl)pyrrolidine-2-carboxamide]
skin fibrosis progress ([1]; preventive model, 5mpk i.p. simultaneously with bleomycin for 4 weeks, vs bleomycin/vehicle): significantly prevented
collagen deposition [1, 3]: reducing
epidermal thickness [1, 3]: reducing
mRNA level of Col1a1 and Col1a2 ([1]; preventive model, 5mpk i.p., 4 weeks, skin): decreasing
bleomycin-induced skin fibrosis ([1]; therapeutic model, 3 weeks bleomycin then 3 weeks treatment, 5mpk): significantly alleviated and reversed
TIM-3 high LICs proportion ([2]; after two days' treatment, bone marrow, without treatment 33.5%): 6.15%
reduction of proportion of blasts (in words) ([2]; after two days' treatment, bone marrow, spleen and thymus): did not reduce
organ morphology (H&E staining) compared with T-ALL group ([2]; treated at blast crisis stage for one month, thymus and spleen): no significant changes
